Results on three molecules are retold here after US20250360134A1, “6-6 OR 5-6 FUSED BICYCLIC COMPOUNDS COMPRISING A PYRI(MI)DINE RING USEFUL IN THE|TREATMENT OF INFECTIOUS DISEASES” (INSTITUT NATIONAL DE LA SANTE ET DE LA RECHERCHE MEDICALE …, priority 2020, published 2025).

Data set [1] concerns HepG2 cells. Description: Cytotoxicity evaluation, MTT. The format is cell-based, human. As to the method: (§1) The aim of this assay was to evaluate the impact of metabolic activation of the tested compounds on cell viability.
(§2) A cytotoxicity evaluation was performed using the method reported in Emami S A et al., Iran J Basic Med Sci 2012; 15:807-11 to determine the cytotoxic concentrations 50% (CC50) and using doxorubicin as a cytotoxic reference compound. These assays were performed in human HepG2 cells. HepG2 cells were purchased from ATCC (ref HB-8065). These cells are a commonly used human hepatocarcinoma-derived cell line that has characteristics similar to those of primary hepatocytes. These cells express many hepatocyte-specific metabolic enzymes, thus enabling the cytotoxicity of tested product metabolites to be evaluated. Briefly, cells in 100 μl of complete RPMI medium [RPMI supplemented with 10% FCS, 1% 1-glutamine (200 mM), penicillin (100 U/ml), and streptomycin (100 μg/ml)] were inoculated into each well of 96-well plates and incubated at 37° C. in a humidified chamber in 6% CO2. After 24 hours, 100 μl of medium with test compound at various concentrations dissolved in DMSO (final concentration less than 0.5% v/v) was added, and the plates were incubated for 72 hours at 37° C. Duplicate assays were performed for each sample. Each well was microscopically examined for precipitate formation before the medium was aspirated from the wells. After aspiration, 100 μl of MTT solution (0.5 mg/ml in medium without FCS) were then added to each well. Cells were incubated for 2 hours at 37° C. MTT solution was removed, and DMSO (100 μl) was added to dissolve the resulting blue formazan crystals. Plates were shaken vigorously (300 rpm) for 5 min. The absorbance was measured at 570 nm with 630 nm as reference wavelength in a BIO-TEK ELx808 Absorbance Microplate Reader. DMSO was used as blank and doxorubicin (Sigma-Aldrich) as positive control. Cell viability was calculated as percentage of control (cells incubated without compound).

Data set [2] deals with T. brucei brucei AnTat 1.9. Description: In vitro antitrypanosomal activity, Alamar Blue assay. The following applies: read-out: IC50 T. brucei brucei. The format is cell-based, Trypanosoma brucei brucei. The method, boiled down: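 Bloodstream-form parasites (2000/well) cultured in modified MEM with 20% heat-inactivated horse serum, 37 °C, 5% CO2, exposed in duplicate to compound in 0.9% NaCl for 69 h. Alamar Blue added for 5 h, fluorescence at 530/590 nm; IC50 by non-linear regression, from three independent experiments.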
Background: Alamar Blue is a resazurin reagent that responds to reducing activity.

The test system of data set [3] is human duplex sequence FdxT. Description: FRET-melting, FdxT. Conditions: duplex control, K+ condition, 2 μM compound, 0.2 μM oligonucleotide.
Data set [4] has as its system Plasmodium falciparum W2. Description: In vitro antiplasmodial activity, SYBR Green I, strain W2.
The subject of data set [5] is Plasmodium falciparum 3D7. Description: In vitro antiplasmodial activity, SYBR Green I, strain 3D7.
Experimental: The in vitro antiplasmodial activities were tested over concentrations ranging from 39 to 40 μm against culture-adapted Plasmodium falciparum: reference strains 3D7 and W2. […] The parasites were cultivated in RPMI medium (Sigma-Aldrich, Lyon, France) supplemented with 0.5% Albumax I (Life Technologies Corporation, Paisley, UK), hypoxanthine (Sigma-Aldrich), and gentamicin (Sigma-Aldrich) with human erythrocytes and were incubated at 37° C. in a candle jar, as described in Desjardins R E et al., Antimicrob Agents Chemother, 1979; 16:710-18.
The P. falciparum drug susceptibility test was carried out in 96-well flat bottom sterile plates in a final volume of 250 μL. After a 48-hour incubation with the drugs, quantities of DNA in treated and control cultures of parasites in human erythrocytes were quantified using the SYBR Green I (Sigma-Aldrich) fluorescence-based method as described in Bennett T N et al, Antimicrob Agents Chemother, 2004; 48:1807-10. Briefly, after incubation, plates were frozen at −20° C. until use. Plates were then thawed for 2 hours at room temperature, and 100 μL of each homogenized culture was transferred to a well of a 96-well flat bottom sterile black plate (Nunc, Inc., Rochester, NY) that contained 100 μL of the SYBR Green I lysis buffer (2×SYBR Green, 20 mM Tris base pH 7.5, 5 mM EDTA, 0.008% w/v saponin, 0.08% w/v Triton X-100). […] Plates were incubated for 1 hour at room temperature and then read on a fluorescence plate reader (Tecan, Grödig, Austria) using excitation and emission wavelengths of 485 and 535 nm, respectively. Concentrations inhibiting 50% of the parasite's growth (half maximal inhibitory concentration or IC50 values) were then calculated from the obtained experimental results by non-linear regression analysis of data from dose-response curves, using TableCurve 2D version 5.0 software (Systat Software, San Jose, CA). IC50 values are reported as means calculated from three independent experiments, as described in H. Kaddouri et al., Antimicrob.
Data set [6] in a line: Cytotoxicity evaluation, MTT. The format is cell-based, human. The following applies: HepG2 cells (hepatocarcinoma-derived, ATCC HB-8065); human HepG2 cells, 72 hours, MTT. The method, then:
as §1, §2

Data set [7] has as its system SARS-CoV-2. Description: microbe, parasite or virus in culture. Format: cell-based. Conditions: Severe acute respiratory syndrome coronavirus 2; A549 cells expressing human ACE2, 72 hours after infection, RT-PCR of the N-gene; read-out: IC50 RTqPCR SARS-CoV-2.
For data set [8], the system named is human telomeric sequence F21T. Description: FRET-melting, F21T. Conditions: K+ condition, 2 μM compound, 0.2 μM oligonucleotide.
The subject of data set [9] is Plasmodium telomeric sequence FPf1T. Description: FRET-melting, FPf1T. The following applies: K+ condition, 2 μM compound, 0.2 μM oligonucleotide.
For data set [10], the system named is Plasmodium telomeric sequence FPf8T. Description: FRET-melting, FPf8T. Conditions: K+ condition, 2 μM compound, 0.2 μM oligonucleotide.
Data set [11] concerns Trypanosoma 9 and 11 chromosomic sequence FTrypBT. Description: FRET-melting, FTrypBT. Conditions: K+ condition, 2 μM compound, 0.2 μM oligonucleotide.
[12] abbreviates: Plasmodium falciparum, W2, 48 h, read-out: IC50 Plasmodium falciparum W2, chloroquine-resistant strain W2, 48-hour incubation.
Setting [13] is: Plasmodium falciparum, 3D7, 48 h, read-out: IC50 Plasmodium falciparum 3D7, chloroquine-sensitive strain 3D7, 48-hour incubation.

Where a name gives a salt, the structure may show the parent alone. Read-outs that look alike come from different tables or passages of the source.

Usually IC50 stands for the concentration at which inhibition is half-maximal. On to “2-(3-Dimethylaminopropylamino)-4-{4-[(4-dimethylaminopropyl)aminomethyl]phenyl}-7-phenyl-7H-pyrrolo[2,3-d]pyrimidine oxalate [Compound 14B]”, for which the IC50 was 13500 nM in data set [1]; 890 ± 90 nM in data set [2] (69-hour incubation, Alamar Blue); 290 ± 100 nM in data set [4] (read-out: IC50 Plasmodium falciparum W2, chloroquine-resistant strain W2, 48-hour incubation); 1480 ± 290 nM in data set [5] (read-out: IC50 Plasmodium falciparum 3D7, chloroquine-sensitive strain 3D7, 48-hour incubation). In data set [3], the “FRET-melting values in K+ conditions at 2 μM ΔTm FdxT” value was −0.7 °C.

For `CN(C)CCCNCc1ccc(-c2nc(-c3ccc(CNCCCN(C)C)cc3)c3ccn(-c4ccccc4)c3n2)cc1` [Compound 1B, 2,4-bis{4-[(3-dimethylaminopropyl)aminomethyl]phenyl}-7-phenyl-7H-pyrrolo[2,3-d]pyrimidine oxalate], in [6], it took 1640 nM to reach half-maximal inhibition (IC50 at 72 h). Also, the half-maximal inhibitory concentration (IC50) in data set [2] (Trypanosoma brucei, 69 h) came to 550 ± 70 nM; in data set [7] it was 330 nM; in data set [4] (setting [12]) it was 2710 ± 140 nM; in [5] (setting [13]), 2220 ± 120 nM. The “FRET-melting values in K+ conditions at 2 μM ΔTm F21T” value in data set [8] worked out at 22.8 °C. In data set [3], the “FRET-melting values in K+ conditions at 2 μM ΔTm FdxT” value worked out at 1.2 °C. Moreover, in data set [9], the “FRET-melting values in K+ conditions at 2 μM ΔTm FPf1T” value amounted to 23.6 °C. Also, the “FRET-melting values in K+ conditions at 2 μM ΔTm FPf8T” value in data set [10] is 23.5 °C. Also, in [11], the “FRET-melting values in K+ conditions at 2 μM ΔTm FtryBT” value is 20.5 °C.

In data set [6], `CN(C)CCCNCc1ccc(-c2nc(-c3ccc(CNCCCN(C)C)cc3)c3ccn(-c4ccc(CNCCCN(C)C)cc4)c3n2)cc1` [Compound 13B, 2,4,7-Tri{4-[(3-dimethylaminopropyl)aminomethyl]phenyl}-7H-pyrrolo[2,3-d]pyrimidine oxalate] registered an IC50 at 72 h of 26700 nM. In addition, the IC50 came out at 860 ± 70 nM in data set [2] (Trypanosoma brucei, 69 h); 170 nM in data set [7]; 10600 ± 690 nM in data set [4] (setting [12]); 2440 ± 1270 nM in data set [5] (setting [13]). Also, in data set [8], the “FRET-melting values in K+ conditions at 2 μM ΔTm F21T” value is 29.1 °C. Further, the “FRET-melting values in K+ conditions at 2 μM ΔTm FdxT” value in [3] came to 5.4 °C. The “FRET-melting values in K+ conditions at 2 μM ΔTm FPf1T” value in data set [9] amounted to 33.1 °C. In addition, the “FRET-melting values in K+ conditions at 2 μM ΔTm FPf8T” value in data set [10] came to 34.6 °C. For the same molecule, the “FRET-melting values in K+ conditions at 2 μM ΔTm FtryBT” value in data set [11] is 30.7 °C.
